Test results taken from US20040033987A1, “Phospholipid derivatives of valproic acid and mixtures thereof” (priority 2003, published 2004).
Entries after “also recorded” stand apart in the source; their conditions may differ.

What was measured:
[1] = compared with sodium valproate; from Ser. No. 08/479,959 and WO 94/22483; listed as TVA 16; cited from earlier work
[2] = Pharmacokinetics study in humans: plasma levels by LC-MS/MS after a single oral administration; type: in vivo, human; conditions: for time at which the peak concentration in the plasma was reached / terminal plasma half-life (t1/2): human plasma, single oral administration of C16/C18-DP-VPA (13%:87% w/w); for terminal plasma half-life (t1/2): calculated from plasma concentration-time profiles; for plasma concentration: human
Procedure: In order to assess the pharmacokinetic properties of the C16-DP-VPA and C18-DP-VPA compounds, the plasma levels of these compounds were monitored in human subjects.
Healthy male volunteers, 18-40 year old, (7 individuals for each dose tested) received, by a single oral administration, 0.3125 g, 0.625 g or 1.25 g of C16/C18-DP-VPA mixture at a ratio of C16/C18=13%: 87% (w/w). Blood samples, 10 ml each, were drawn from each individual at the time points after the administration of the drug, as indicated. The samples were centrifuged at 4° C. at 1100 g for 10 minutes immediately after collection. Plasma levels of C16-DP-VPA and C18-DP-VPA were determined using a LC-MS/MS technique. The plasma concentration profiles of C16-DP-VPA and C18-DP-VPA as monitored for 24 hours following a single oral administration 0.625 g of C16/C18-DP-VPA are shown, respectively, in FIGS. 2A and 2B.

[3] = system: pentylenetetrazol (PTZ) induced seizure; assay: PTZ-induced seizures test in mice; type: in vivo, CD-1 mice; conditions: for time of peak activity / maximal therapeutic effect: PTZ-induced seizures, s.c. equivalent to 40 mg/kg VPA; for % Protection / Second seizure (n//N): s.c. pre-treatment equivalent to 40 mg/kg VPA
Procedure: The anti-epileptic efficacies of C16-DP-VPA, C18-DP-VPA and mixtures comprising both C16-DP-VPA and C18-DP-VPA were evaluated in mice. The protective effect of the compounds was compared at different time points following chemical seizure induction by pentylenetetrazol (PTZ).
The pentylenetetrazol (PTZ) induced seizure model in mice is an established animal model system for epilepsy. Subcutaneous injection of PTZ into control animals results in the following sequence of events: myoclonic jerks within 1-2 mins, followed by clonic and clonic-tonic seizures each lasting approximately 5-10 secs with the severity of seizures increasing with time for up to 30 mins. 80% of the first seizures are-observed within 5 mins, and 100% within 20 mins. The second seizures usually follow within 6-10 mins and subsequent seizures (if any) every 6 mins.
CD-1 mice (25-30 g) were pre-treated by subcutaneous (s.c.) injection of either C16-DP-VPA or C18-DP-VPA or a mixture thereof. The amounts used were equivalent to 40 mg/kg VPA. After different times as indicated, 1, 2 or 4 hours, a convulsive dose of pentylenetetrazol (85-100 mg/kg) was subcutaneously injected into the mice. The animals were monitored for one hour following the PTZ administration for the occurrence of episodes of clonic spasms persisting for at least 5 sec.

[4] = 1 hour after single oral 0.625 g C16/C18-DP-VPA
[5] = 3 hours after single oral 0.625 g C16/C18-DP-VPA
[6] = 6 hours after single oral 0.625 g C16/C18-DP-VPA
[7] = 8 hours after single oral 0.625 g C16/C18-DP-VPA
[8] = 10 hours after single oral 0.625 g C16/C18-DP-VPA
[9] = 12 hours after single oral 0.625 g C16/C18-DP-VPA

Row | time at which the peak concentration in the plasma was reached [2] [h] | terminal plasma half-life (t1/2) [2] [h] | plasma concentration [2, 4] [ng/mL] | plasma concentration [2, 5] [ng/mL] | plasma concentration [2, 6] [ng/mL] | plasma concentration [2, 7] [ng/mL] | plasma concentration [2, 8] [ng/mL] | plasma concentration [2, 9] [ng/mL] | SMILES | anticonvulsant activity [1] | time of peak activity / maximal therapeutic effect [3] [h] | % Protection ([3]; PTZ after 1 h) [%] | Second seizure (n//N) ([3]; PTZ after 1 h) | % Protection ([3]; PTZ after 2 h) [%] | Second seizure (n//N) ([3]; PTZ after 2 h) | % Protection ([3]; PTZ after 4 h) [%] | Second seizure (n//N) ([3]; PTZ after 4 h)
1 | 6 | 14.0 ± 0.6 | 13 ± 34 | 167 ± 94 | 397 ± 172 | 385 ± 140 | 368 ± 182 | 318 ± 150 | CCCCCCCCCCCCCCCC(=O)OC[C@H](COP(=O)([O-])OCC[N+](C)(C)C)OC(=O)C(CCC)CCC [C16-DP-VPA, 1-Palmitoyl-2-valproyl-sn-glycero-3-phosphatidylcholine] | significant anticonvulsant activity; also recorded: more potent than sodium valproate | ≤ 1 | 50 | 4/8 | 25 | 6/8 | 38 | 5/8
2 | 8 | 8.3 ± 1.3 | 0 ± 0 | 58 ± 43 | 818 ± 292 | 1175 ± 137 | 949 ± 254 | 698 ± 163 | CCCCCCCCCCCCCCCCCC(=O)OC[C@H](COP(=O)([O-])OCC[N+](C)(C)C)OC(=O)C(CCC)CCC [C18-DP-VPA, 1-Stearoyl-2-valproyl-sn-glycero-3-phosphatidylcholine] | – | 4 | 17 | 5/6 | 14 | 6/7 | 86 | 1/7
